Data reported in ChEMBL document CHEMBL1139705, “Synthesis and in vitro pharmacological studies of new C(4)-modified salvinorin A analogues” (Bioorg Med Chem Lett, 2006).
pEC50, pKi: −log10 of the molar value.

Each compound was assayed against T1, Kappa-type opioid receptor (Homo sapiens, UniProt P41145) (assay: Displacement of [3H]diprenorphine binding from human kappa opioid receptor expressed in CHO cells).
Type: cell-based

T1 sequence (P41145 whole entry): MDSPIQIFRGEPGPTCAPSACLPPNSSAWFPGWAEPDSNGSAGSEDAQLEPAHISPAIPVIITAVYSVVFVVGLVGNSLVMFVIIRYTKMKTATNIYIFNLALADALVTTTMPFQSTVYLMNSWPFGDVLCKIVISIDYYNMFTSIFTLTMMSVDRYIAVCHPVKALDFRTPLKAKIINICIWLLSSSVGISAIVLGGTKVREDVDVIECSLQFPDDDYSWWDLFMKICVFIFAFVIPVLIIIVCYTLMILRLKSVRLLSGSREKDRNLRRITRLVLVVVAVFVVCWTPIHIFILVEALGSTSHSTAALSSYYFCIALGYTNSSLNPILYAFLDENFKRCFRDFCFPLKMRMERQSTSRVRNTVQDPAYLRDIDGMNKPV

Row | Compound | pKi
1 | CC(=O)O[C@H]1C[C@@H](COC(=O)c2ccc(F)cc2)[C@]2(C)CC[C@H]3C(=O)O[C@H](c4ccoc4)C[C@]3(C)[C@H]2C1=O | < 6.00
2 | CC(=O)OC[C@@H]1C[C@H](OC(C)=O)C(=O)[C@H]2[C@@]1(C)CC[C@H]1C(=O)O[C@H](c3ccoc3)C[C@]21C | < 6.00
3 | CC(=O)O[C@H]1C[C@@H](COC(=O)C(C)NC(=O)OCC2c3ccccc3-c3ccccc32)[C@]2(C)CC[C@H]3C(=O)O[C@H](c4ccoc4)C[C@]3(C)[C@H]2C1=O (stereo not given in full) | < 6.00
4 | CC(=O)O[C@H]1C[C@@H](COCc2ccccc2)[C@]2(C)CC[C@H]3C(=O)O[C@H](c4ccoc4)C[C@]3(C)[C@H]2C1=O | < 6.00
5 | CC(=O)O[C@H]1C[C@@H](c2nnnn2CCC#N)[C@]2(C)CC[C@H]3C(=O)O[C@H](c4ccoc4)C[C@]3(C)[C@H]2C1=O | < 6.00
6 | CC(=O)O[C@H]1C[C@@H](C=O)[C@]2(C)CC[C@H]3C(=O)O[C@H](c4ccoc4)C[C@]3(C)[C@H]2C1=O | < 6.00
7 | CC(=O)O[C@H]1C[C@@H](C(=O)O)[C@]2(C)CC[C@H]3C(=O)O[C@H](c4ccoc4)C[C@]3(C)[C@H]2C1=O | < 6.00
8 | CC(=O)O[C@H]1C[C@@H](COC(=O)Cc2ccccc2)[C@]2(C)CC[C@H]3C(=O)O[C@H](c4ccoc4)C[C@]3(C)[C@H]2C1=O | < 6.00
9 | COC[C@@H]1C[C@H](OC(C)=O)C(=O)[C@H]2[C@@]1(C)CC[C@H]1C(=O)O[C@H](c3ccoc3)C[C@]21C | < 6.00
10 | CC(=O)O[C@H]1C[C@@H](COC(=O)c2ccc(Br)cc2)[C@]2(C)CC[C@H]3C(=O)O[C@H](c4ccoc4)C[C@]3(C)[C@H]2C1=O | < 6.00
11 | CCOC[C@@H]1C[C@H](OC(C)=O)C(=O)[C@H]2[C@@]1(C)CC[C@H]1C(=O)O[C@H](c3ccoc3)C[C@]21C | < 6.00
12 | CC(=O)O[C@H]1C[C@@H](COC(=O)c2ccc(C)cc2)[C@]2(C)CC[C@H]3C(=O)O[C@H](c4ccoc4)C[C@]3(C)[C@H]2C1=O | < 6.00
13 | CC(=O)O[C@H]1C[C@@H](COC(=O)CNC(=O)OCC2c3ccccc3-c3ccccc32)[C@]2(C)CC[C@H]3C(=O)O[C@H](c4ccoc4)C[C@]3(C)[C@H]2C1=O | < 6.00
14 | C=CCOC[C@@H]1C[C@H](OC(C)=O)C(=O)[C@H]2[C@@]1(C)CC[C@H]1C(=O)O[C@H](c3ccoc3)C[C@]21C | < 6.00
15 | CC(=O)O[C@H]1C[C@@H](COC(=O)C(C)N(C)C(=O)OCC2c3ccccc3-c3ccccc32)[C@]2(C)CC[C@H]3C(=O)O[C@H](c4ccoc4)C[C@]3(C)[C@H]2C1=O (stereo not given in full) | < 6.00
16 | CC(=O)O[C@H]1C[C@@H](COC(=O)C(NC(=O)OCC2c3ccccc3-c3ccccc32)c2ccccc2)[C@]2(C)CC[C@H]3C(=O)O[C@H](c4ccoc4)C[C@]3(C)[C@H]2C1=O (stereo not given in full) | < 6.00
17 | COCCOCC(=O)OC[C@@H]1C[C@H](OC(C)=O)C(=O)[C@H]2[C@@]1(C)CC[C@H]1C(=O)O[C@H](c3ccoc3)C[C@]21C | 6.21
18 | C/C=C/C(=O)OC[C@@H]1C[C@H](OC(C)=O)C(=O)[C@H]2[C@@]1(C)CC[C@H]1C(=O)O[C@H](c3ccoc3)C[C@]21C | < 6.00
19 | CC(=O)O[C@H]1C[C@@H](CO)[C@]2(C)CC[C@H]3C(=O)O[C@H](c4ccoc4)C[C@]3(C)[C@H]2C1=O | 7.36
20 | COCCOCC(=O)OC[C@@H]1C[C@H](OC(C)=O)C(=O)[C@H]2[C@@]1(C)CC[C@@H]1C(=O)O[C@H](c3ccoc3)C[C@]21C | < 6.00
21 | CC(=O)O[C@H]1C[C@@H](COC(=O)c2cccc(F)c2)[C@]2(C)CC[C@H]3C(=O)O[C@H](c4ccoc4)C[C@]3(C)[C@H]2C1=O | < 6.00
22 | CC(=O)O[C@H]1C[C@@H](COC(=O)C2CC2)[C@]2(C)CC[C@H]3C(=O)O[C@H](c4ccoc4)C[C@]3(C)[C@H]2C1=O | 6.66
23 | C#CCC(=O)OC[C@@H]1C[C@H](OC(C)=O)C(=O)[C@H]2[C@@]1(C)CC[C@H]1C(=O)O[C@H](c3ccoc3)C[C@]21C | < 6.00

These compounds were tested against T1, Kappa-type opioid receptor (assay: Binding potency at human kappa opioid receptor expressed in CHO cells by [35S]GTPgammaS binding assay).
Type: functional, cell-based

Row | Compound | pEC50
24 | COCCOCC(=O)OC[C@@H]1C[C@H](OC(C)=O)C(=O)[C@H]2[C@@]1(C)CC[C@H]1C(=O)O[C@H](c3ccoc3)C[C@]21C | 6.68
25 | CC(=O)O[C@H]1C[C@@H](CO)[C@]2(C)CC[C@H]3C(=O)O[C@H](c4ccoc4)C[C@]3(C)[C@H]2C1=O | 7.68
26 | CC(=O)O[C@H]1C[C@@H](COC(=O)C2CC2)[C@]2(C)CC[C@H]3C(=O)O[C@H](c4ccoc4)C[C@]3(C)[C@H]2C1=O | 6.45

Each compound was assayed against T1, Kappa-type opioid receptor (assay: Efficacy at human kappa opioid receptor expressed in CHO cells by [35S]GTP-gamma-S binding assay relative to U50,488H).
Type: functional, cell-based

Row | Compound | Efficacy [%]
27 | COC(=O)[C@@H]1C[C@H](OC(C)=O)C(=O)[C@H]2[C@@]1(C)CC[C@H]1C(=O)O[C@H](c3ccoc3)C[C@]21C | 106
28 | COCCOCC(=O)OC[C@@H]1C[C@H](OC(C)=O)C(=O)[C@H]2[C@@]1(C)CC[C@H]1C(=O)O[C@H](c3ccoc3)C[C@]21C | 98
29 | CC(=O)O[C@H]1C[C@@H](CO)[C@]2(C)CC[C@H]3C(=O)O[C@H](c4ccoc4)C[C@]3(C)[C@H]2C1=O | 107
30 | CC(=O)O[C@H]1C[C@@H](COC(=O)C2CC2)[C@]2(C)CC[C@H]3C(=O)O[C@H](c4ccoc4)C[C@]3(C)[C@H]2C1=O | 92
